In patent US12337009B2, “Nucleotide derivatives and methods of use thereof” (The Trustees of Columbia University in the City of New York, priority 2016, dated 2025):

Assays:
[1] = tested on: Therminator IX DNA polymerase; test: Polymerase extension reaction with 3′-O-modified reversible terminators, MALDI-TOF MS readout; assay type: biochemical; conditions: extension reactions incl. 1:1 mixtures of two terminators, MALDI-TOF MS (FIGS. 23A-28C)
Experimental: The reaction was conducted in an ABI GeneAmp PCR System 9700 with initial incubation at 65° C. for 30 second, followed by 38 cycles of 65° C./30 sec, 45° C./30 sec, 65° C./30 sec. Multiple reactions were carried out and an aliquot of the reaction mixture was desalted using a C18 ZipTip column (Millipore, MA) and analyzed by MALDI-TOF MS (ABI Voyager DE). Polymerase extension reaction using 3'-O-SS-Rox-dATP for 5, 10, and 30 cycles. […] The reactions were conducted in an ABI GeneAmp PCR System 9700 with initial incubation at 65° C. for 30 second, followed by 5, 10, or 30 cycles of 65° C./30 sec, 45° C./30 sec, 65° C./30 sec. The reaction mixtures were desalted using Oligo Clean & ConcentratorTM (ZYMO Research) and analyzed by MALDI-TOF MS (ABI Voyager DE) and the results are shown in FIGS. 23A-23B. DNA template: [NT] ID NO:6). […] The reaction mixtures were desalted using Oligo Clean & ConcentratorTM (ZYMO Research) and analyzed by MALDI-TOF MS (ABI Voyager DE) the result is shown in FIG. 24. […] The reaction mixtures were desalted using Oligo Clean & ConcentratorTM (ZYMO Research) and analyzed by MALDI-TOF MS (ABI Voyager DE) the result is shown in FIGS. 25A-25C. […] The reaction mixtures were desalted using Oligo Clean & ConcentratorTM (ZYMO Research) and analyzed by MALDI-TOF MS (ABI Voyager DE) the result is shown in FIGS. 28A-28C. […]

[2] = tested on: DNA polymerase
From the text: FIGS. 23A-23B. MALDI-TOF mass spectra of DNA extension products from polymerase reactions using 3′-O-Rox-SS-dATP for 5, 10, and 30 cycles.
FIGS. 25A-25C. MALDI-TOF mass spectrum of DNA extension products from polymerase reactions using a mixture of 3′-O-tButyl-SS-dATP and 3′-O-Rox-SS-dATP at a 1:1 ratio. […] FIG. 25B: 3′-O-tButyl-SS-dATP (M.W. 625). FIG. 25C: 3′-O-Rox-SS-dATP (M.W. 1157).
FIG. 26. MALDI-TOF mass spectrum of a DNA extension product from polymerase reaction using 3′-O-TCO-SS-dTTP.
FIGS. 27A-27B. MALDI-TOF mass spectrum of a DNA extension product from polymerase reaction using 3′-O-Biotin-dCTP.
FIGS. 28A-28C. MALDI-TOF mass spectrum of DNA extension products from polymerase reaction using with a mixture of 3′-O-Rox-SS-dATP and 3′-O-Rox-PEG4-SS-dATP at a 1:1 ratio.

CC(C)(C)SSCO[C@H]1C[C@H](n2cnc3c(N)ncnc32)O[C@@H]1COP(=O)(O)OP(=O)(O)OP(=O)(O)O [3′-O-tButyl-SS-dATP, 3′-O-t-Butyldithiomethyl(SS)-dATP]
incorporation efficiency relative to another nucleotide analogue [1]: much higher efficiency than 3′-O-Rox-SS-dATP | extension ([2]; after 5 cycles of extension): completed | efficiency of incorporation by polymerase versus 3′-O-Rox-SS-dATP ([2]; mixture at a 1:1 ratio): much higher efficiency | height of the extension product peak versus that with 3′-O-Rox-SS-dATP ([2]; mixture at a 1:1 ratio, after 5 cycles): more than twice
